Data published in US20100061928A1, “LABELLED ANALOGUES OF HALOBENZAMIDES AS RADIOPHARMACEUTICALS” (Institut National De La Sante et De La Recherche Medicale …, priority 2006, published 2010).
Where a name gives a salt, the structure may show the parent alone.

Key:
[1] = Elimination of the molecules: cumulative urinary and faecal excretion 0-72 hours; format: in vivo, mouse; conditions: for Faecal elimination 0-72 hours (Faeces) / Urinary and faecal elimination 0-72 hours (Total) / Urinary elimination 0-72 hours (Urine): cumulative excretion 0-72 hours; for Faecal elimination 0-72 hours (Faeces) / Urinary elimination 0-72 hours (Urine): mice in metabolic cages; for Urinary and faecal elimination 0-72 hours (Total): urine + faeces; for elimination route (in words): urinary versus faecal, 0-72 hours
tumour = experiment: Dosimetry with regard to the tumour (MIRD programme, extrapolated to ^131I); conditions: for Effective period: extrapolated to 131I labelling; for Biological period: from biodistribution data
[2] = test system: grafted B16 F0 murine melanoma tumour; experiment: Biodistribution of the ^125I-labelled molecules in the melanoma-bearing mouse (autoradiography of whole-body sections); conditions: ^125I-labelled compound

CCN(CC)CCNC(=O)c1ccc(I)nc1 [compound 7, N-(2-diethylaminoethyl)-6-iodonicotinamide dihydrochloride]
Faecal elimination 0-72 hours (Faeces) [1]: 5.3% | Urinary and faecal elimination 0-72 hours (Total) [1]: 72.6% | Urinary elimination 0-72 hours (Urine) [1]: 67.3% | elimination route (in words) [1]: predominantly in the urine | Effective period (tumour): 17.3 h | Biological period (tumour): 19.0 hours | Concentration of radioactivity, B 16 (tumour), Mean ([2]; 1 H after i.v. administration): 15.49 % ID/g | Concentration of radioactivity, GB (gall bladder), Mean ([2]; 1 H after i.v. administration): 8.68 % ID/g | Concentration of radioactivity, Ic (intestinal contents), Mean ([2]; 1 H after i.v. administration): 13.44 % ID/g | Concentration of radioactivity, SV (seminal vesicles), Mean ([2]; 1 H after i.v. administration): 6.79 % ID/g | Concentration of radioactivity, Sc (stomach contents), Mean ([2]; 1 H after i.v. administration): 34.80 % ID/g | Concentration of radioactivity, blood (measured in the heart cavity), Mean ([2]; 1 H after i.v. administration): 6.67 % ID/g | Concentration of radioactivity, brain, Mean ([2]; 1 H after i.v. administration): 0.64 % ID/g | Concentration of radioactivity, kidney, Mean ([2]; 1 H after i.v. administration): 6.08 % ID/g | Concentration of radioactivity, liver, Mean ([2]; 1 H after i.v. administration): 5.14 % ID/g | Concentration of radioactivity, lungs, Mean ([2]; 1 H after i.v. administration): 7.59 % ID/g | Concentration of radioactivity, muscle (skeletal muscle), Mean ([2]; 1 H after i.v. administration): 1.48 % ID/g | Concentration of radioactivity, pancreas, Mean ([2]; 1 H after i.v. administration): 3.94 % ID/g | Concentration of radioactivity, spleen, Mean ([2]; 1 H after i.v. administration): 5.44 % ID/g | Concentration of radioactivity, testicles, Mean ([2]; 1 H after i.v. administration): 4.11 % ID/g | Concentration of radioactivity, thyroid, Mean ([2]; 1 H after i.v. administration): 25.29 % ID/g | Concentration of radioactivity, uvea (pigmented tissues of the eye), Mean ([2]; 1 H after i.v. administration): 16.66 % ID/g | Concentration of radioactivity, B 16 (tumour), Mean ([2]; 3 H after i.v. administration): 9.27 % ID/g | Concentration of radioactivity, GB (gall bladder), Mean ([2]; 3 H after i.v. administration): 6.78 % ID/g | Concentration of radioactivity, Ic (intestinal contents), Mean ([2]; 3 H after i.v. administration): 4.94 % ID/g | Concentration of radioactivity, SV (seminal vesicles), Mean ([2]; 3 H after i.v. administration): 3.78 % ID/g | Concentration of radioactivity, Sc (stomach contents), Mean ([2]; 3 H after i.v. administration): 42.71 % ID/g | Concentration of radioactivity, blood (measured in the heart cavity), Mean ([2]; 3 H after i.v. administration): 4.22 % ID/g | Concentration of radioactivity, brain, Mean ([2]; 3 H after i.v. administration): 0.22 % ID/g | Concentration of radioactivity, kidney, Mean ([2]; 3 H after i.v. administration): 3.26 % ID/g | Concentration of radioactivity, liver, Mean ([2]; 3 H after i.v. administration): 3.01 % ID/g | Concentration of radioactivity, lungs, Mean ([2]; 3 H after i.v. administration): 3.96 % ID/g | Concentration of radioactivity, pancreas, Mean ([2]; 3 H after i.v. administration): 2.53 % ID/g | Concentration of radioactivity, spleen, Mean ([2]; 3 H after i.v. administration): 2.68 % ID/g | Concentration of radioactivity, testicles, Mean ([2]; 3 H after i.v. administration): 2.43 % ID/g | Concentration of radioactivity, thyroid, Mean ([2]; 3 H after i.v. administration): 59.09 % ID/g | Concentration of radioactivity, uvea (pigmented tissues of the eye), Mean ([2]; 3 H after i.v. administration): 12.69 % ID/g | Concentration of radioactivity, B 16 (tumour), Mean ([2]; 6 H after i.v. administration): 6.97 % ID/g | Concentration of radioactivity, GB (gall bladder), Mean ([2]; 6 H after i.v. administration): 4.90 % ID/g | Concentration of radioactivity, Ic (intestinal contents), Mean ([2]; 6 H after i.v. administration): 2.98 % ID/g | Concentration of radioactivity, SV (seminal vesicles), Mean ([2]; 6 H after i.v. administration): 3.55 % ID/g | Concentration of radioactivity, Sc (stomach contents), Mean ([2]; 6 H after i.v. administration): 50.21 % ID/g | Concentration of radioactivity, blood (measured in the heart cavity), Mean ([2]; 6 H after i.v. administration): 3.71 % ID/g | Concentration of radioactivity, brain, Mean ([2]; 6 H after i.v. administration): 0.12 % ID/g | Concentration of radioactivity, kidney, Mean ([2]; 6 H after i.v. administration): 3.05 % ID/g | Concentration of radioactivity, liver, Mean ([2]; 6 H after i.v. administration): 2.09 % ID/g | Concentration of radioactivity, lungs, Mean ([2]; 6 H after i.v. administration): 3.21 % ID/g | Concentration of radioactivity, muscle (skeletal muscle), Mean ([2]; 6 H after i.v. administration): 0.53 % ID/g | Concentration of radioactivity, pancreas, Mean ([2]; 6 H after i.v. administration): 2.27 % ID/g | Concentration of radioactivity, spleen, Mean ([2]; 6 H after i.v. administration): 2.35 % ID/g | Concentration of radioactivity, testicles, Mean ([2]; 6 H after i.v. administration): 2.01 % ID/g | Concentration of radioactivity, thyroid, Mean ([2]; 6 H after i.v. administration): 7.92 % ID/g | Concentration of radioactivity, uvea (pigmented tissues of the eye), Mean ([2]; 6 H after i.v. administration): 11.50 % ID/g | Concentration of radioactivity, B 16 (tumour), Mean ([2]; 24 H after i.v. administration): 2.69 % ID/g | Concentration of radioactivity, Sc (stomach contents), Mean ([2]; 24 H after i.v. administration): 1.46 % ID/g | Concentration of radioactivity, thyroid, Mean ([2]; 24 H after i.v. administration): 111.30 % ID/g | Concentration of radioactivity, uvea (pigmented tissues of the eye), Mean ([2]; 24 H after i.v. administration): 6.07 % ID/g | Concentration of radioactivity, B 16 (tumour), Mean ([2]; 72 H after i.v. administration): 0.87 % ID/g | Concentration of radioactivity, kidney, Mean ([2]; 72 H after i.v. administration): 1.09 % ID/g | Concentration of radioactivity, thyroid, Mean ([2]; 72 H after i.v. administration): 178.80 % ID/g | Concentration of radioactivity, uvea (pigmented tissues of the eye), Mean ([2]; 72 H after i.v. administration): 2.54 % ID/g

CCN(CC)CCNC(=O)c1cc2cc(I)ccc2[nH]1 [compound 10, N-(2-diethylaminoethyl)-5-iodoindole-2-carboxamide hydrochloride]
Faecal elimination 0-72 hours (Faeces) [1]: 61.7% | Urinary and faecal elimination 0-72 hours (Total) [1]: 83.2% | Urinary elimination 0-72 hours (Urine) [1]: 21.5% | elimination route (in words) [1]: faecal route predominates | Effective period (tumour): 18.2 h | Biological period (tumour): 20.1 hours | Concentration of radioactivity, B 16 (tumour), Mean ([2]; 1 H after i.v. administration): 8.31 % ID/g | Concentration of radioactivity, Ic (intestinal contents), Mean ([2]; 1 H after i.v. administration): 76.74 % ID/g | Concentration of radioactivity, Sc (stomach contents), Mean ([2]; 1 H after i.v. administration): 35.41 % ID/g | Concentration of radioactivity, blood (measured in the heart cavity), Mean ([2]; 1 H after i.v. administration): 1.60 % ID/g | Concentration of radioactivity, brain, Mean ([2]; 1 H after i.v. administration): 4.84 % ID/g | Concentration of radioactivity, kidney, Mean ([2]; 1 H after i.v. administration): 10.87 % ID/g | Concentration of radioactivity, liver, Mean ([2]; 1 H after i.v. administration): 11.86 % ID/g | Concentration of radioactivity, lungs, Mean ([2]; 1 H after i.v. administration): 14.41 % ID/g | Concentration of radioactivity, muscle (skeletal muscle), Mean ([2]; 1 H after i.v. administration): 1.50 % ID/g | Concentration of radioactivity, pancreas, Mean ([2]; 1 H after i.v. administration): 7.15 % ID/g | Concentration of radioactivity, spleen, Mean ([2]; 1 H after i.v. administration): 8.09 % ID/g | Concentration of radioactivity, uvea (pigmented tissues of the eye), Mean ([2]; 1 H after i.v. administration): 11.70 % ID/g | Concentration of radioactivity, B 16 (tumour), Mean ([2]; 3 H after i.v. administration): 10.22 % ID/g | Concentration of radioactivity, Ic (intestinal contents), Mean ([2]; 3 H after i.v. administration): 112.56 % ID/g | Concentration of radioactivity, Sc (stomach contents), Mean ([2]; 3 H after i.v. administration): 18.52 % ID/g | Concentration of radioactivity, blood (measured in the heart cavity), Mean ([2]; 3 H after i.v. administration): 0.79 % ID/g | Concentration of radioactivity, brain, Mean ([2]; 3 H after i.v. administration): 1.73 % ID/g | Concentration of radioactivity, kidney, Mean ([2]; 3 H after i.v. administration): 4.19 % ID/g | Concentration of radioactivity, liver, Mean ([2]; 3 H after i.v. administration): 5.21 % ID/g | Concentration of radioactivity, lungs, Mean ([2]; 3 H after i.v. administration): 3.46 % ID/g | Concentration of radioactivity, muscle (skeletal muscle), Mean ([2]; 3 H after i.v. administration): 0.49 % ID/g | Concentration of radioactivity, pancreas, Mean ([2]; 3 H after i.v. administration): 2.48 % ID/g | Concentration of radioactivity, spleen, Mean ([2]; 3 H after i.v. administration): 2.79 % ID/g | Concentration of radioactivity, uvea (pigmented tissues of the eye), Mean ([2]; 3 H after i.v. administration): 12.78 % ID/g | Concentration of radioactivity, B 16 (tumour), Mean ([2]; 6 H after i.v. administration): 9.84 % ID/g | Concentration of radioactivity, Ic (intestinal contents), Mean ([2]; 6 H after i.v. administration): 79.85 % ID/g | Concentration of radioactivity, Sc (stomach contents), Mean ([2]; 6 H after i.v. administration): 21.84 % ID/g | Concentration of radioactivity, blood (measured in the heart cavity), Mean ([2]; 6 H after i.v. administration): 0.67 % ID/g | Concentration of radioactivity, brain, Mean ([2]; 6 H after i.v. administration): 0.74 % ID/g | Concentration of radioactivity, kidney, Mean ([2]; 6 H after i.v. administration): 2.50 % ID/g | Concentration of radioactivity, liver, Mean ([2]; 6 H after i.v. administration): 3.63 % ID/g | Concentration of radioactivity, lungs, Mean ([2]; 6 H after i.v. administration): 1.70 % ID/g | Concentration of radioactivity, muscle (skeletal muscle), Mean ([2]; 6 H after i.v. administration): 0.31 % ID/g | Concentration of radioactivity, pancreas, Mean ([2]; 6 H after i.v. administration): 1.46 % ID/g | Concentration of radioactivity, spleen, Mean ([2]; 6 H after i.v. administration): 1.68 % ID/g | Concentration of radioactivity, uvea (pigmented tissues of the eye), Mean ([2]; 6 H after i.v. administration): 13.20 % ID/g | Concentration of radioactivity, B 16 (tumour), Mean ([2]; 24 H after i.v. administration): 8.16 % ID/g | Concentration of radioactivity, Ic (intestinal contents), Mean ([2]; 24 H after i.v. administration): 3.31 % ID/g | Concentration of radioactivity, Sc (stomach contents), Mean ([2]; 24 H after i.v. administration): 2.10 % ID/g | Concentration of radioactivity, blood (measured in the heart cavity), Mean ([2]; 24 H after i.v. administration): 0.10 % ID/g | Concentration of radioactivity, brain, Mean ([2]; 24 H after i.v. administration): 0.00 % ID/g | Concentration of radioactivity, kidney, Mean ([2]; 24 H after i.v. administration): 0.83 % ID/g | Concentration of radioactivity, liver, Mean ([2]; 24 H after i.v. administration): 1.61 % ID/g | Concentration of radioactivity, lungs, Mean ([2]; 24 H after i.v. administration): 0.37 % ID/g | Concentration of radioactivity, muscle (skeletal muscle), Mean ([2]; 24 H after i.v. administration): 0.19 % ID/g | Concentration of radioactivity, pancreas, Mean ([2]; 24 H after i.v. administration): 0.09 % ID/g | Concentration of radioactivity, spleen, Mean ([2]; 24 H after i.v. administration): 1.22 % ID/g | Concentration of radioactivity, uvea (pigmented tissues of the eye), Mean ([2]; 24 H after i.v. administration): 8.81 % ID/g | Concentration of radioactivity, B 16 (tumour), Mean ([2]; 72 H after i.v. administration): 0.84 % ID/g | Concentration of radioactivity, Sc (stomach contents), Mean ([2]; 72 H after i.v. administration): 0.04 % ID/g | Concentration of radioactivity, kidney, Mean ([2]; 72 H after i.v. administration): 0.71 % ID/g | Concentration of radioactivity, liver, Mean ([2]; 72 H after i.v. administration): 0.61 % ID/g | Concentration of radioactivity, uvea (pigmented tissues of the eye), Mean ([2]; 72 H after i.v. administration): 5.86 % ID/g
